Assay results reported in patent US12422427B2, “Compounds for treatment of diseases and methods of screening therefor” (Max-Planck-Gesellschaft zur Förderung der Wissenschaften …, priority 2018, dated 2025).
“Also recorded” adds a separate entry of the source.

What was measured:
FUS GFP = molecular target: T1, FUS GFP (Homo sapiens, UniProt P35637); test: Salt (KCl) sensitivity of FUS GFP droplet formation in vitro; format: biochemical; details: 100 μM compound, 2.8 μM FUS GFP
T1 construct: His MBP (N, cleaved yes); made in house; host or cells: baculovirus/insect cell expression system
T1 sequence (P35637 1-526): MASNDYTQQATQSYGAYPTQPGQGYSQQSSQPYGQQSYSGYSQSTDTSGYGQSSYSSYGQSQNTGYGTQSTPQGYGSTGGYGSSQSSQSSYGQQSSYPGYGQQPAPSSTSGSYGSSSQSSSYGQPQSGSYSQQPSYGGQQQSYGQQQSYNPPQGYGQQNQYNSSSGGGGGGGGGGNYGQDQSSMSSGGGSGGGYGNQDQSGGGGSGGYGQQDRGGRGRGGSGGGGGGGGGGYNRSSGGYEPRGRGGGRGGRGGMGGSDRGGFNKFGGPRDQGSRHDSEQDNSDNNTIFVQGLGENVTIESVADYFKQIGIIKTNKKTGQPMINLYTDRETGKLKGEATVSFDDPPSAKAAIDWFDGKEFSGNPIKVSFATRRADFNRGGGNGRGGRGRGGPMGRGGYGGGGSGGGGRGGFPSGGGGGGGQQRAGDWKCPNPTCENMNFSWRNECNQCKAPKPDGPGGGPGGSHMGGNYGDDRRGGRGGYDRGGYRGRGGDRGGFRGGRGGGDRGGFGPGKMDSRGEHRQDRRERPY
Procedure: FIG. 6A) Droplets formed by 2.8 μM FUS GFP in vitro with different concentrations of KCl (which inhibits droplet formation) with 100 μM lipoamide, lipoic acid or equivalent DMSO solvent control (1%). Lipoamide and lipoic acid subtly promote droplet formation. FIG. 6B) Effect of lipoamide and lipoic acid on G156E FUS GFP droplet ‘aging’ while shaking, relative to an equivalent DMSO solvent control (0.3%). Both compounds delay fibre formation. FIG. 6C) Representative fluorescence recovery after photobleaching (FRAP) of FUS droplets and fibres formed during the aging shown in FIG. 6B). Aged droplets treated with lipoamide or lipoic acid retain fast FRAP indicating liquidity. FIG. 6D) Quantitation of fluorescence signal intensity illustrated in FIG. 6C). Error bars represent standard deviation.
It was determined if lipoic acid or lipoamide affected the conditions under which FUS would phase separate in vitro. […]
For in vitro solidification assays, FUS GFP in storage buffer was diluted in water to give 10 μM FUS, 50 mM Tris·HCl pH 7.4 and 1 mM DTT in a 20 μl volume in non-binding clear bottom 384 well plates (Greiner Bio-One, 781906). […] Fibre and droplet formation were analysed by widefield epifluorescence using a DeltaVision Elite microscope (GE Healthcare Life Sciences) with a Plan ApoN 60× NA 1.4 oil immersion objective (Olympus) and an sCMOS camera (PCO). […]

[1] = tested on: D. melanogaster overexpressing human wild type FUS or ALS-associated FUS mutations; test: Climbing assay: motor defects in D. melanogaster expressing human FUS; format: in vivo, Drosophila melanogaster; details: for motor defect / ability to climb: flies expressing wild-type FUS, FUS P525L or FUS R521C
Procedure: All Drosophila stocks were maintained on standard cornmeal at 25° C. in light/dark controlled incubator. The w1118, UAS-eGFP, and D42-GAL4 were obtained from Bloomington stock center. The UAS-FUS WT, UAS-FUS P525L, and UAS-FUS R521C were previously described in Anderson et al. (Hum. Mol. Genet. 27, 1366-1381, 2018).
Climbing assays were performed as previously described. Briefly, flies expressing FUS, eGFP or w1118 were grown in the presence or absence of (±)-α-Lipoic Acid (0.43 mM or 2.15 mM diluted in ethanol), (R)-(+)-α-Lipoic Acid (0.43 mM or 2.15 mM diluted in ethanol), (S)-(−)-α-Lipoic Acid (0.43 mM or 2.15 mM diluted in ethanol), (±)-α-Lipoamide (0.43 mM diluted in DMSO), or PP 242/Torkinib (10 μM or 50 μM diluted in DMSO), then anesthetised, placed into vials and allowed to acclimatise for 15 mins in new vials. For each fly genotype, the vial was knocked three times on the base on a bench and a video camera was used to record the flies climbing up the vial walls. The percentage of flies that climbed 4 cm in 30 s was recorded. Statistical analysis was carried out in GraphPad Prism 6 using either Student's T-test or one-way ANOVA with Tukey's or Dunnet's multiple comparisons test.

Structure (SMILES) | conditions (KCl concentration) under which FUS phase separates (FUS GFP) | motor defect / ability to climb [1] | flies able to climb 4 cm in 30 s ([1]; food supplementation, from ˜50% without)
NC(=O)CCCCC1CCSS1 (racemic) [lipoamide, 5-(1,2-dithiolan-3-yl)pentanamide] | slightly increasing the minimum KCl concentration at which phase separation would occur | recovers defects in motor function | –
O=C(O)CCCCC1CCSS1 (racemic) [lipoic acid, 5-(1,2-dithiolan-3-yl)pentanoic acid] | slightly increasing the minimum KCl concentration at which phase separation would occur | recovered the motor defect in a dose-dependent manner; also recorded: dose-dependent increase in the ability | > 80%
